Data: patent US10449200B2, “Combined inhibition of the vitamin D receptor and poly(ADP) ribose polymerase (PARP) in the treatment of cancer” (Institute for Cancer Research, priority 2014, dated 2019)
Like-named read-outs stand apart in the source and are kept apart here.

Key:
[1] = system: BxPC3 cells; experiment: Western blot of Rad51 and γH2AX in supernatant and chromatin fractions; assay type: cell-based, human; conditions: gemcitabine for 18 hours
Description: (§1) Western Blotting. BxPC3, Panc1, and CFPAC1 cells were treated with vehicle or gemcitabine (50 nM) for 18 hrs. Cells were harvested, washed in PBS and lysed in NP40 lysis buffer (1% NP40/PBS/10% glycerol) with protease and phosphatase inhibitors. Protein concentrations were determined with MicroBCA Assay (Pierce Biotechnology; 23224 and 23228) and then SDS sample buffer was added to the lysates. 40 μg of boiled lysates was separated by SDS-PAGE and then transferred onto Immobilon P membrane (Millipore; IPVH00010). Antibodies used for immunoblotting were obtained from: VDR (Epitomics; 3277-1), γH2AX (Upstate Biotechnologies, now Millipore; 05-636), Rad51 (Genetex; GTX70230, gift), p300 (Santa Cruz Biotechnologies; SC-584), and TAO1 kinase (Bethyl Labs; A300-524A).

[2] = system: VDR; experiment: Western blot of VDR expression after gemcitabine; assay type: cell-based, human; conditions: gemcitabine 50 nM 18 hrs
Description: as §1
Next, the levels of VDR protein were compared in BxPC3, CFPAC1, and Panc1 cells to see if the amount of expression might correlate with gemcitabine sensitivity.

[3] = system: CFPAC1 cells; experiment: Clonogenic survival assay, gemcitabine kill curves; assay type: cell-based; conditions: Homo sapiens
Description: Cell culture and chemicals. Panc1, BxPC3, and CFPAC1 cells were purchased from American Type Culture Collection (ATCC) and banked in house until use. Cell lines were cultured in DMEM/10% FBS supplemented with 2 mM glutamine and 1% penicillin, streptomycin, and kanamycin (PSK) and were maintained at 37° C. in 5% CO2. Charcoal stripped (in house cell culture facility) and dialyzed FBS (Life Technologies; 509 26400-036) were used. Gemcitabine was obtained from the in house pharmacy. Rucaparib and trichostatin A were gifts.
Cell viability assays. For clonogenic assays, 1000 cells per well were seeded into 6 well plates on day 0. Cells were treated with gemcitabine at various doses on day 1 for 24 hours, Gemcitabine was washed out on day 2, and cells were allowed to grow for a subsequent 10 days before being fixed (10% methanol+10% acetic acid) and stained with crystal violet (0.4% in 20% ethanol) for colony counting and quantitation. For Rucaparib clonogenic assays, the drug was added at various doses 24 hours after cell plating, and cells were allowed to grow for a subsequent 10 days in the presence of Rucaparib. For TSA clonogenic assays, the drug was added for 4 hours prior to addition of gemcitabine or vehicle for another 18 hours before drugs were washed away, and cells were allowed to grow in drug-free medium for 10 days.

[4] = system: BxPC3 cells; experiment: Immunofluorescence of DNA damage foci (phospho-γH2AX, Rad51, 53BP1) after gemcitabine; assay type: cell-based, human; conditions: for cells positive for Rad51 foci (>5 foci/nucleus): 18 hrs post gemcitabine
Description: For Immunofluorescence, cells were plated onto coverslips 24 hours pre-gemcitabine treatment. At different timepoints post gemcitabine treatment, cells were permeablized, fixed (4% paraformaldehyde) and stained. Antibodies to γH2AX (Millipore; 05-636), Rad51 (a gift), and 53BP1 were used. Alexa Fluor-conjugated (488, 555, and 647 nm) secondary antibodies (Molecular probes; A-11029, A-21428, A-21247) were used at a final concentration of 1 and nuclei counterstained with DAPI. Images were captured using a 40× or 63× high NA objective mounted on a semi-automated inverted microscope (Nikon TEi) with a charge-coupled device camera (Photometrics1394) using Nikon Elements 2.0. Exposure times for antibodies were optimized for control samples and identical exposure times used for the experimental samples. Images were quantitated and analyzed using Nikon Elements 2.0. Confocal images were taken using a Leica TCS-SP8 microscope controlled by LAS software (Leica Microsystems).
It was investigated if these repair pathways were abrogated after VDR knockdown by staining for foci formation by phospho-γH2AX, Rad51, and 53BP1, and measuring intensities after gemcitabine treatment (FIGS. 3, 4, and 5). BxPC3 (high VDR expression) and Panc1 (low VDR expression) cells were treated with gemcitabine (50 nM) for 2, 4, 8, and 18 hours, and fixed and stained for phospho-γH2AX, 53BP1, and Rad51. Foci quantitation included counting of nuclei with >5 foci and a separate measurement of the sum intensities of foci that were averaged for 5 separate immunofluorescence experiments. […] Weak but detectable phospho-γH2AX foci were visible within 4 hours of gemcitabine treatment in BxPC3 cells while it took 18 hours for foci to form in Panc1 cells (FIG. 3, A). Similarly, Rad51 foci were visible after 8 hours of gemcitabine treatment in BxPC3 cells compared to 18 hours in Panc1 cells (FIG. 3, A, FIG. 4, and FIG. 5).

[5] = system: Panc1 cells; experiment: Time-lapse microscopy of H2B:gfp cells; assay type: cell-based, human; conditions: gemcitabine 50 nM
Description: Microscopy. For timelapse studies, Panc1 cells with stable expression of Histone H2B fused at its C-terminus to GFP were seeded into 6-well plates. 24 hours post cell plating, gemcitabine (50 nM) was added before timelapse was commenced. The plate was placed in a 37° C. chamber; bright-field and fluorescent images were taken every 5 minutes for 48 hours using a Nikon TE2000S microscope controlled by Metamorph (Molecular Devices). Three independent movies were conducted for each condition. Movies were allowed to commence for 48 hours for each independent experiment.
Time-lapse microscopy was used to track the fates of gemcitabine-treated Panc1 cells that stably expressed a H2B:gfp fusion protein that labeled chromosomes. Cells were transfected with siRNAs, treated with vehicle or gemcitabine and monitored every 10 minutes for 48 hours (FIG. 2).

[6] = BxPC3 VDRkd, 18 hours after gemcitabine
[7] = BxPC3 VDRkd, 18 hours of gemcitabine
[8] = Panc1 cells or VDR depleted BXPC3 versus BxPC3, after gemcitabine
[9] = parental BxPC3, 18 hours of gemcitabine

Compound: Nc1ccn([C@@H]2O[C@H](CO)[C@@H](O)C2(F)F)c(=O)n1 [gemcitabine]
- Rad51 and H2AX in whole cell extracts (supernatants), parental versus BxPC3 VDRkd [1]: equivalent amounts
- Rad51 and phospho-γH2AX in chromatin fractions, VDRkd compared to parental BxPC3 [1]: very low amounts
- VDR levels after overnight treatment with gemcitabine ([2]; BXPC3 cells): No noticeable increase
- VDR levels after overnight treatment with gemcitabine ([2]; CFPAC1 cells): increased
- VDR levels after overnight treatment with gemcitabine ([2]; Panc1 cells): increased
- IC50 ([3]; CFPAC-1, CFPAC1, VDR depleted (VDR siRNA), read-out: IC50 gemcitabine): ~20 nM
- IC50 ([3]; CFPAC-1, CFPAC1, control siRNA, read-out: mean IC50 gemcitabine): ~45 nM
- IC50 ([3]; CFPAC-1, CFPAC1 cells, read-out: IC50 gemcitabine): ~45 nM
- time until Rad51 foci detected after gemcitabine ([4]; BxPC3 VDRkd cells): 18 h
- time until phospho-γH2AX foci detected after gemcitabine ([4]; BxPC3 VDRkd cells): 8 h
- cells exhibiting Rad51 foci ([4]; BxPC3 VDRkd, 4 hrs in gemcitabine (50 nM), absence of TSA): 11%
- cells with diffuse phospho-γH2AX pattern [4, 6]: 82%
- cells with punctate phospho-γH2AX foci [4, 6]: 18%
- cells with clear Rad51 foci [4, 7]: 28%
- cells with diffuse 53BP1 pattern [4, 7]: 69%
- cells with diffuse Rad51 staining [4, 7]: 72%
- cells with punctate 53BP1 foci [4, 7]: 31%
- cells positive for Rad51 foci (>5 foci/nucleus) ([4]; BxPC3 control cells): ~84%
- cells positive for Rad51 foci (>5 foci/nucleus) ([4]; BxPC3 transfected with p300 shRNA): ~22%
- delay of Rad51 foci formation kinetics [4, 8]: 4 h
- delay of phospho-γH2AX foci formation kinetics [4, 8]: 6 h
- reduction of Rad51 foci intensity [4, 8]: 1.5 fold
- reduction of phospho-γH2AX foci intensity [4, 8]: 2 fold
- reduction of Rad51 focal intensity ([4]; p300 knockdown cells compared to control cells, gemcitabine treated): ~35%
- cells with punctate phospho-γH2AX foci ([4]; parental BxPC3, 18 hours after gemcitabine): 94%
- cells with clear Rad51 foci [4, 9]: 92%
- cells with diffuse 53BP1 pattern [4, 9]: 10%
- cells with diffuse Rad51 staining [4, 9]: 8%
- cells with punctate 53BP1 foci [4, 9]: 90%
- time until Rad51 foci visible after gemcitabine ([4]; parental BxPC3, gemcitabine 50 nM): 8 h
- cells exhibiting Rad51 foci ([4]; parental BxPC3, within 4 hours of gemcitabine treatment): 92%
- cell fate in 48 hour timelapse ([5]; Panc1, Chk1 knockdown): enter mitosis where many died or died shortly after exit from mitosis
- cell fate in 48 hour timelapse ([5]; Panc1, VDR siRNA): never entered mitosis, but nevertheless died
- cell fate in 48 hour timelapse ([5]; Panc1, control siRNA): stopped proliferation
